Test results: paper PMC7320011, “Rationally designed ruthenium complexes for 1- and 2-photon photodynamic therapy” (Nature Communications, 2020)
Values joined by “and” are separate entries in the source; they are usually repeats but may differ in a detail not shown here. Equal values may be shown once. Read-outs that look alike come from different tables or passages of the source.

What was measured:
[1] = Singlet oxygen quantum yield, indirect evaluation (1O2 scavenger absorbance); type: physicochemical
Protocol: Indirect evaluation: measurement in acetonitrile: the sample was prepared in an air-saturated acetonitrile solution with an absorption of 0.2 at the irradiation wavelength, N,N-dimethyl-4-nitrosoaniline aniline (RNO, 24 µM) and imidazole (12 mM). Measurement in PBS buffer: the sample was prepared in an air-saturated PBS solution containing the complex with an absorption of 0.2 at the irradiation wavelength, N,N-dimethyl-4-nitrosoaniline aniline (RNO, 20 µM) and histidine (10 mM). The samples were irradiated for various time points with an Atlas Photonics LUMOS BIO irradiator. The absorption of the samples was constantly monitored with a SpectraMax M2 Microplate Reader (Molecular Devices). The difference in absorption (A0 − A) at 420 nm for the measurement in acetonitrile or at 440 nm for the measurement in PBS was determined. The difference in absorption was then plotted against the irradiation times and the slope of the linear regression calculated. The absorption of the sample was corrected with an absorption correction factor. The singlet oxygen quantum yields were calculated using the same formulas as used for the direct evaluation.

[2] = system: mouse colon carcinoma (CT-26) cells
Protocol: (§3) A total of 4 × 10^3 cells were seeded on 96-well plates and allowed to adhere overnight. The cells were treated with increasing concentrations of the sample diluted in cell media achieving a total volume of 200 μL. The cells were incubated with the sample for 8 h and, after this time, the medium refreshed. To study the phototoxic effect of the sample, the cells were exposed to 480 nm (spectral half-width: 20 nm, 10 min, 5.2 mW cm^−2, 3.1 J cm^−2) or 540 nm (spectral half-width: 30 nm, 40 min, 4.0 mW cm^−2, 9.5 J cm^−2) light using an Atlas Photonics LUMOS BIO irradiator. To study the dark cytotoxicity of the sample, the cells were not irradiated and the medium exchanged. The cells were grown for an additional 40 h at 37 °C. After this time, the medium was replaced with fresh medium containing resazurin with a final concentration of 0.2 mg mL^−1. The cells were incubated for 4 h and the amount of the fluorescent product resorufin determined (λex = 540 nm, λem = 590 nm) with a SpectraMax M2 Microplate Reader (Molecular Devices). The obtained data was analyzed with the GraphPad Prism software.

[3] = system: human glioblastoma astrocytoma (U373) cells;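 further: Resazurin-to-resorufin fluorescence viability readout, 8 h compound exposure then medium change, light dose 3.1 J cm^−2 at 480 nm or 9.5 J cm^−2 at 540 nm, analysed 40 h later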
Protocol: as §3

[4] = system: HeLa MCTS; assay: (Photo-)cytotoxicity on 3D MCTS (ATP concentration); type: cell-based, human; details: for IC50: 1-3 as chloride salts; for PI (2P irradiation): dark vs 800 nm; for PI (1P irradiation): dark vs 500 nm
Protocol: The cytotoxicity of the compounds in 3D MCTS was assessed by measurement of the ATP concentration. MCTS were treated with increasing concentrations of the compound (2% DMSO, v%) by replacing 50% of the media with drug supplemented media and incubation for 12 h. After this time, the MCTS were divided in three identical groups. The first group was strictly kept in the dark. The second group was exposed to a 1-Photon irradiation (500 nm, 16.7 min, 10.0 mW cm^−2, and 10 J cm^−2) using a LED light source and the third group was exposed to a 2-Photon irradiation (800 nm, 10 J cm^−2 with a section interval of 5 μm) using a LSM 880 (Carl Zeiss, Germany) laser scanning confocal microscope equipped with a Coherent Chameleon 2-Photon laser. After the irradiation, all groups were incubated additional 48 h. The ATP concertation was measured using a CellTiter-Glo 3D Cell Viability kit (Promega) by measuring the generated chemiluminescence with an infinite M200 PRO (Tecan) plate reader.

[5] = In vivo time-dependent biodistribution (ICP-MS); design: species or system mouse; details: chloride salt, SW620/AD300 tumor-bearing nude mice
Protocol: (§1) Six weeks old nu/nu female mice were purchased from Charles River. For the tumor xenograft, 6 × 10^6 SW620/AD300 cells were subcutaneously (s.c.) injected with a 150 μL Matrigel and saline (1:1, v/v) suspension into the mice. After a week, the tumor volumes of the mice reached ~80 mm^3. All experiments were conducted in compliance with the ethical regulations for animal testing and received approval of the experimental animal managing committee of Sun Yat Sen University.
Three nude mice were tail-intravenous (i.v.) injected with 2 mg kg^−1 of the sample. One hour later, the mice were sacrificed and the major organs (including the heart, liver, spleen, lung, kidney, brain, intestine, and blood) were separated, weighted and ground. The grinded organ as well as the blood were digested using a 60% HNO3 solution for 3 days, and following this, diluted to a 2% HNO3 solution in water. The Ru content was determined with an ICP-MS apparatus and the results compared with the Ru references.
Six SW620/AD300 nude tumor-bearing nude mice were separated into three groups, and i.v. injected with 2 mg kg^−1 of the sample. 30 min, 1 h, 2 h later, the mice were euthanized and the distribution of the sample determined using the previous described method.

[6] = In vivo tolerability: body weight, behaviour, H&E histology; design: species or system mouse; details: 2 mg kg^−1 i.v.
Protocol: (§2) The mice were anesthetized by injection of a 4% chloral hydrate aqueous solution (0.2 mL, 20 g^−1) before the treatment. The tumor volume and body weight were measured and recorded every 2 days. Tumor volume was calculated by the following formula:6 Volume=Length×Width^2/2.
The tumor and all major organs (including the heart, liver, spleen, lung, kidney, brain, intestine, and blood) were collected and a slice of each one was fixated with 4% paraformaldehyde. The obtained slices were stained with hematoxylin and eosin. The histological images were taken with a Carl Zeiss Axio Imager Z2 microscope.

[7] = system: doxorubicin-selected P-gp-overexpressing human colon cancer tumor (SW620/AD300); assay: In vivo PDT on tumor-bearing nude mice; design: species or system mouse; details: chloride salt, 2 mg kg^−1 i.v.
Protocol: as §1
30 SW620/AD300 nude tumor-bearing nude mice were randomly separated into six groups, resulting in five mice for each group. After been anaesthetized, the mice was fixed in a warm three-axes holder. Before irradiation, the tumor site was disinfected with ethanol. The tumor was exposed to 1P or 2P light. Following the irradiation, the operative area was disinfection by iodophor.
Group 1: injected 7 (2 mg kg^−1, 50 μL) intravenously and irradiate under 800 nm laser (50 mW, 1 kHz, pulse width 35 fs, 5 s mm^−1) 1 h after injection; […]
as §2

[8] = 2P 800 nm, section interval 5 μm, read-out: IC50 2P irradiation (800 nm, 10 J cm-2)
[9] = 1P 500 nm, read-out: IC50 1P irradiation (500 nm, 10 J cm-2)

For C(=C\c1ccnc(-c2cc(/C=C/c3ccccc3)ccn2)c1)/c1ccccc1.C(=C\c1ccnc(-c2cc(/C=C/c3ccccc3)ccn2)c1)/c1ccccc1.C(=C\c1ccnc(-c2cc(/C=C/c3ccccc3)ccn2)c1)/c1ccccc1.F[P-](F)(F)(F)(F)F.F[P-](F)(F)(F)(F)F.[Ru+2] [compound 1], the “Singlet oxygen quantum yield, Indirect 450 nm CH3CN” value [1] was 66%, the “Singlet oxygen quantum yield, Indirect 450 nm PBS” value [1] was 5% and the “Singlet oxygen quantum yield, Indirect 540 nm CH3CN” value [1] was 61%. For the same compound, the “Singlet oxygen quantum yield, Indirect 540 nm PBS” value [1] was 3%, the IC50 [2] was 20.3 µM and the IC50 [3] was 83.1 µM.

In the case of COc1ccc(/C=C/c2ccnc(-c3cc(/C=C/c4ccc(OC)cc4)ccn3)c2)cc1.COc1ccc(/C=C/c2ccnc(-c3cc(/C=C/c4ccc(OC)cc4)ccn3)c2)cc1.COc1ccc(/C=C/c2ccnc(-c3cc(/C=C/c4ccc(OC)cc4)ccn3)c2)cc1.F[P-](F)(F)(F)(F)F.F[P-](F)(F)(F)(F)F.[Ru+2] [compound 3, [Ru((E,E′)-4,4′-Bis[p-methoxystyryl]-2,2′-bipyridine)3][PF6]2], the “Singlet oxygen quantum yield, Indirect 450 nm CH3CN” value [1] is reported as 48%, the “Singlet oxygen quantum yield, Indirect 450 nm PBS” value [1] is reported as 6% and the “Singlet oxygen quantum yield, Indirect 540 nm CH3CN” value [1] is reported as 49%. For the same compound, the “Singlet oxygen quantum yield, Indirect 540 nm PBS” value [1] was 5%, the IC50 [2] was 19.3 µM and the IC50 [3] was 51.3 µM. For the same compound, the IC50 [4, 8] was 87.3 ± 6.8 µM and the “PI (2P irradiation)” value [4] was over 1.1.

For CN(C)c1ccc(/C=C/c2ccnc(-c3cc(/C=C/c4ccc(N(C)C)cc4)ccn3)c2)cc1.CN(C)c1ccc(/C=C/c2ccnc(-c3cc(/C=C/c4ccc(N(C)C)cc4)ccn3)c2)cc1.F[P-](F)(F)(F)(F)F.F[P-](F)(F)(F)(F)F.[Ru+2].c1ccc(-c2ccccn2)nc1 [compound 4, [Ru(2,2′-bipyridine)((E,E′)-4,4′-Bis[p-(N,N-dimethylamino)styryl]-2,2′-bipyridine)2][PF6]2], the “Singlet oxygen quantum yield, Indirect 450 nm CH3CN” value [1] was 40%, the “Singlet oxygen quantum yield, Indirect 450 nm PBS” value [1] was 2% and the “Singlet oxygen quantum yield, Indirect 540 nm CH3CN” value [1] was 37%. The “Singlet oxygen quantum yield, Indirect 540 nm PBS” value [1] was 3%, the IC50 [2] was 7.3 µM and the IC50 [3] was 19 µM. For the same compound, the IC50 [4, 9] was 78.3 ± 5.1 µM, the IC50 [4, 8] was 63 ± 4.2 µM and the “PI (1P irradiation)” value [4] was over 1.3. The “PI (2P irradiation)” value [4] was over 1.6.

With COc1ccc(/C=C/c2ccnc(-c3cc(/C=C/c4ccc(OC)cc4)ccn3)c2)cc1.COc1ccc(/C=C/c2ccnc(-c3cc(/C=C/c4ccc(OC)cc4)ccn3)c2)cc1.F[P-](F)(F)(F)(F)F.F[P-](F)(F)(F)(F)F.[Ru+2].c1ccc(-c2ccccn2)nc1 [compound 5, [Ru(2,2′-bipyridine)((E,E′)-4,4′-Bis[p-methoxystyryl]-2,2′-bipyridine)2][PF6]2] the “Singlet oxygen quantum yield, Indirect 450 nm CH3CN” value [1] was 51%, the “Singlet oxygen quantum yield, Indirect 450 nm PBS” value [1] was 8% and the “Singlet oxygen quantum yield, Indirect 540 nm CH3CN” value [1] was 46%. The “Singlet oxygen quantum yield, Indirect 540 nm PBS” value [1] was 6%, the IC50 [2] was 5.1 µM and the IC50 [3] was 17.8 µM. For the same compound, the IC50 [4, 9] was 19.3 ± 2.7 µM, the IC50 [4, 8] was 13.4 ± 3.9 µM and the “PI (1P irradiation)” value [4] was over 5.2. For the same compound, the “PI (2P irradiation)” value [4] was over 7.5.

With CN(C)c1ccc(/C=C/c2ccnc(-c3cc(/C=C/c4ccc(N(C)C)cc4)ccn3)c2)cc1.F[P-](F)(F)(F)(F)F.F[P-](F)(F)(F)(F)F.[Ru+2].c1ccc(-c2ccccn2)nc1.c1ccc(-c2ccccn2)nc1 [compound 6, [Ru(2,2′-bipyridine)2((E,E′)-4,4′-Bis[p-(N,N-dimethylamino)styryl]-2,2′-bipyridine)][PF6]2] the “Singlet oxygen quantum yield, Indirect 450 nm CH3CN” value [1] was 53%, the “Singlet oxygen quantum yield, Indirect 450 nm PBS” value [1] was 2% and the “Singlet oxygen quantum yield, Indirect 540 nm CH3CN” value [1] was 38%. For the same compound, the “Singlet oxygen quantum yield, Indirect 540 nm PBS” value [1] was 2%, the IC50 [2] was 2.4 µM and the IC50 [3] was 10.7 µM. For the same compound, the IC50 [4, 9] was 33.8 ± 3.4 µM, the IC50 [4, 8] was 26.5 ± 2.9 µM and the “PI (1P irradiation)” value [4] was over 8.9. For the same compound, the “PI (2P irradiation)” value [4] was over 11.3 and the IC50 ([4]; dark, read-out: IC50 dark) was over 300 µM.

For COc1ccc(/C=C/c2ccnc(-c3cc(/C=C/c4ccc(OC)cc4)ccn3)c2)cc1.F[P-](F)(F)(F)(F)F.F[P-](F)(F)(F)(F)F.[Ru+2].c1ccc(-c2ccccn2)nc1.c1ccc(-c2ccccn2)nc1 [compound 7, [Ru(2,2′-bipyridine)2((E,E′)-4,4′-Bis[p-methoxystyryl]-2,2′-bipyridine)][PF6]2], the “Singlet oxygen quantum yield, Indirect 450 nm CH3CN” value [1] was 77%, the “Singlet oxygen quantum yield, Indirect 450 nm PBS” value [1] was 11% and the “Singlet oxygen quantum yield, Indirect 540 nm CH3CN” value [1] was 68%. The “Singlet oxygen quantum yield, Indirect 540 nm PBS” value [1] was 10%, the “Singlet oxygen quantum yield in acetonitrile (range over methods and wavelengths)” value ([1]; acetonitrile, 450 and 540 nm, direct and indirect) was 68–77% and the “Singlet oxygen quantum yield in aqueous solution (range over wavelengths)” value ([1]; aqueous solution, 450 and 540 nm) was 10–11%. The “time until absorbed from the blood stream” value ([5]; 2 mg kg^−1 i.v. tail injection) was at most 1 h, the “organ accumulation (Ru content)” value ([5]; 2 mg kg^−1 i.v.) was “high accumulation in the intestine and some accumulation in the tumor” and the IC50 [2] was 0.7 ± 0.4 µM. For the same compound, the “histology of all other organs (H&E)” value ([6]; exposed to light) was “did not show any significant effect”, the “histology of tumor tissue (H&E)” value ([6]; exposed to light) was “pathological alterations caused by the PDT treatment” and the “behaviour of treated mice” value ([6]; nude mice) was “behaved normally, without signs of pain, stress or discomfort”. For the same compound, the “body weight of treated mice” value ([6]; nude mice) was “did not lose or gain weight”, the IC50 [3] was 13.5 µM and the IC50 [4, 9] was > 6.8 µM and 6.8 µM. The IC50 [4, 8] was > 1.4 µM and 1.4 µM, the “PI (1P irradiation)” value [4] was > 44 and > 44.1 and the “PI (2P irradiation)” value [4] was > 250 and > 214.3. The IC50 ([4]; dark, read-out: IC50 dark) was over 300 µM, the “tumor growth after one PDT treatment” value ([7]; 1P (500 nm, 36 J cm^−2) or 2P (800 nm, 50 mW) irradiation 1 h after injection, 80 mm^3 tumor) was “drastically shrank until they were nearly eradicated” and the “tumor growth without irradiation” value ([7]; dark) was “kept growing”.
